This is an account of results in patent US20250375450A1, “SMARCA2/4 INHIBITION AS A STRATEGY TO TREAT TUMORS THAT HARBOR ABERRANT BAF ASSEMBLIES” (BOARD OF REGENTS, THE UNIVERSITY OF TEXAS SYSTEM, priority 2022, published 2025).

What all share (assay type): biochemical
Test [1] deals with T1, SMARCA2 (Homo sapiens, UniProt P51531).
T1 construct: The SMARCA2-1 gene (amino acids 437-1493) encompassing all domains; made in house; host or cells: expiSF9 insect cells (baculovirus, pFASTBac1)
Briefly: High-throughput screen (HTS) of 40,000 compounds, ATPase assay. Particulars: HTS against human SMARCA2. An excerpt:
The SMARCA2-1 gene (amino acids 437-1493) encompassing all domains (HAS, BRK, ATPase and Bromodomain) required for DNA binding and ATPase activity were cloned into a pFASTBac1 plasmid for insect cell expression (FIG. 2A). In brief, one positive colony was selected and grown to produce enough bacmid DNA. The purified bacmid DNA was used to transfect expiSF9 insect cells using ExpiFectamine protocol as recommended by the manufacturer (Invitrogen). The P0 virus was first generated from the transfected cells, which was subsequently used to generate a P1 virus stock to have enough virus for several rounds of infections and/or large-scale production of SMARCA2-1 enzyme. Next, the experimental conditions were optimized for highest expression of this enzyme and the cultures scaled up to express and purify the enzyme by successive passage of soluble fraction through affinity, ion-exchange, and size exclusion chromatography steps (FIG. 2B). Next, a 29-mer double stranded DNA termed as DNA_EEPD1 (sequence below) was used to measure ATPase activity of SMARCA2 (FIG. 2C and FIG. 2D) and its inhibition by the small molecules described herein (FIG. 4D).
(§1) In brief, the disclosed ATPase assay is based on the inorganic phosphate (Pi) release from the enzymatic reaction, wherein the substrate 2-amino-6-mercapto-7-methylpurine ribose (MESG) is converted by purine phosphorylase (PNP) to ribose 1-phosphate and 2-amino-6-mercapto-7-methylpurine. This conversion changes the spectrophotometric shift of MSEG absorbance from 330 nm to 360 nm (FIG. 1C and FIG. 1D).
Briefly, human SMARCA2 was purified, and a high-throughput screen (HTS) of 40,000 compounds was conducted. […] When cells reached 90% confluency, cells were harvested, washed twice in 1×PBS, counted using trypan blue exclusion method. […] Cells were monitored for 72 hrs. by live cell imaging method (Incucyte S3) taking images every two hours. The confluency was determined and plotted against time (hours) by using Prism software.

Test [2] has as its target T1, SMARCA2. Put plainly: Dose response experiment, ATPase assay.
Description: The SMARCA2-1 gene (amino acids 437-1493) encompassing all domains (HAS, BRK, ATPase and Bromodomain) required for DNA binding and ATPase activity were cloned into a pFASTBac1 plasmid for insect cell expression (FIG. 2A). In brief, one positive colony was selected and grown to produce enough bacmid DNA. The purified bacmid DNA was used to transfect expiSF9 insect cells using ExpiFectamine protocol as recommended by the manufacturer (Invitrogen). The P0 virus was first generated from the transfected cells, which was subsequently used to generate a P1 virus stock to have enough virus for several rounds of infections and/or large-scale production of SMARCA2-1 enzyme. […]
as §1
Exemplary compounds were evaluated for their ability to inhibit human SMARCA2 in ATPase assays as detailed in Table 2 below. […]

For test [3], the target named is T1, SMARCA2. Briefly: Secondary ATPase assay. The procedure: Exemplary compounds were evaluated for their ability to inhibit human SMARCA2 in ATPase assays as detailed in Table 2 below. Dose response curves for compound nos.

T1 sequence (P51531 437-1493): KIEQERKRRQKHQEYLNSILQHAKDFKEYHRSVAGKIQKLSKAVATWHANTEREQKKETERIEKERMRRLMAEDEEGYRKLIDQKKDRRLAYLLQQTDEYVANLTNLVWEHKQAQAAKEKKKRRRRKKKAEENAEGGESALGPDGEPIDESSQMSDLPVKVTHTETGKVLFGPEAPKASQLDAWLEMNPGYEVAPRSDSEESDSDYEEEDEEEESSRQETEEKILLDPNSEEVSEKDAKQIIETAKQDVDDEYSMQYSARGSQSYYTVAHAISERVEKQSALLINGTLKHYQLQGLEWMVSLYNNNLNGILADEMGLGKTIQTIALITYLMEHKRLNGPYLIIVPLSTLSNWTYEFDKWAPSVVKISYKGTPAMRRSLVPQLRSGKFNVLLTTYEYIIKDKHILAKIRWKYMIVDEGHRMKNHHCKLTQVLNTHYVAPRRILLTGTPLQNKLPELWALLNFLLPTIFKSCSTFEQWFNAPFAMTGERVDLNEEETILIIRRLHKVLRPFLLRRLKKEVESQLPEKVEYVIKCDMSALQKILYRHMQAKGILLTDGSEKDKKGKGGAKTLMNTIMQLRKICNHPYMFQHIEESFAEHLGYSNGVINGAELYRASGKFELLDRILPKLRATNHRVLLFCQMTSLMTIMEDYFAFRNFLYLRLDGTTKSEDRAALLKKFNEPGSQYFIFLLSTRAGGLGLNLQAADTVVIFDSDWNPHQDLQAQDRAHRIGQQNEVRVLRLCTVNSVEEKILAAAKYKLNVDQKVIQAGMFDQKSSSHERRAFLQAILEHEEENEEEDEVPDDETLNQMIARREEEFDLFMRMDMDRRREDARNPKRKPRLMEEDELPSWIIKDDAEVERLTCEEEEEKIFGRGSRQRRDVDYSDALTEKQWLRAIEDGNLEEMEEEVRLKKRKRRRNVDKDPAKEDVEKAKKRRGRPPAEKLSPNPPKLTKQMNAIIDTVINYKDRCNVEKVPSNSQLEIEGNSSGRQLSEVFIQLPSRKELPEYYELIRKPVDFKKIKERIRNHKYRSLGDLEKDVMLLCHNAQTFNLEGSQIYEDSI

For the molecule `Clc1ccc(CNc2nc(NC3CCCC3)nc3ccccc23)cc1Cl` [Compound 8], on SMARCA2 [1], the “% ATPase activity in HTS” value stood at 10.6%. Also, the IC50 on SMARCA2 [2] was determined as 14.8 µM; against SMARCA2 [3], 5 µM.
On to `O[C@@H]1CC[C@H](Nc2nc(NCc3ccc(Cl)c(Cl)c3)c3ccccc3n2)C1` [Compound 6], for which the “% ATPase activity in HTS” value on SMARCA2 [1] is recorded as 97.3%.
In the case of `COc1cc2nc(NC3CCCC3)nc(NCc3ccc(Cl)c(Cl)c3)c2cc1OC` [Compound 7], the “% ATPase activity in HTS” value on SMARCA2 [1] is 26.9%. The molecule also yielded an IC50 against SMARCA2 [2] of 25.3 µM.
